Reference: US20160051556A1, “Method and Pharmaceutical Composition for use in the Treatment of Chronic Liver Diseases Associated with a Low Hepcidin Expression” (INSERM (INSTITUT NATIONAL DE LA SANTÉ ET DE LA RECHERCHE …, priority 2013, published 2016)

Experiments:
Format in all cases: in vivo, mouse
[1] = tested on: Hamp mRNA; assay: Liver Hamp mRNA by qRT-PCR in Bmp6-/- males treated with gefitinib; settings: 7 w.o. Bmp6-/- males
Description: (§1) Bmp6 null mice (Bmp^6mlRob) obtained from E. Robertson and wild-type controls on a CD1 background were sacrificed at 7, 12, or 30 weeks of age. Liver, spleen, heart, pancreas and kidney samples were dissected for RNA isolation, flash frozen in liquid nitrogen and stored at −80° C. Hamp-deficient mice were kindly provided by S. Vaulont. They were derived on a C57BL/6 background in the lab of T. Ganz. Gonadectomies and sham operations were performed under anesthesia at 4 weeks of age. Testosterone (10 mg/kg; Sigma) was suspended in corn oil and a total volume of 60 μL per mouse was injected sc everyday for a week. To investigate the role of erythropoiesis in the down-regulation of hepcidin by testosterone, Bmp6−/− females were whole-body irradiated with a sublethal dose of 60Co (6 Gy) on day 1, administered daily doses of testosterone (1 μg/g) starting on day 2, and sacrificed on day 8. To investigate the effect of EGF signaling on testosterone-induced hepcidin down-regulation, the selective EGFR inhibitor Gefitinib (Iressa) was stirred into 1% Tween 80 and administered orally daily from days −1 to 7 to Bmp6−/− males (200 mg/kg; Euromedex). Mice were housed under controlled lighting and temperature conditions, fed a chow of normal iron content (250 mg iron/kg; SAFE, Augy, France) ad libidum, and were fasted for 14 h before they were killed. Experimental protocols were approved by the Midi-Pyrenees Animal Ethics Committee.
(§2) Total RNA from mouse liver was extracted using Trizol (Invitrogen). cDNA was synthesized using MMLV-RT (Promega). The sequences of the primers for target genes and the reference gene Hprt are listed in supplemental Table 1. Quantitative PCR reactions were prepared with LightCycler 480 DNA SYBR Green I Master reaction mix (Roche Diagnostics, Mannheim, Germany) and run in duplicate on a LightCycler 480 Instrument (Roche Diagnostics).
(§3) Data were first normalized to the invariant control Hprt and, for each sample and each target gene, −ΔCt=−[Ct target gene−Ct Hprt] was calculated. Because the numerical value of Ct is inversely related to the amount of amplicon in the reaction, the higher the −ΔCt value, the greater the amount of target amplicon. Values shown are means±SEM. Target gene expression in an individual is proportional to 2^−ΔCt. However, individual expression values are usually shown on a log scale and, because log 2 (2^−ΔCt)[…], −ΔCt data rather than 2^−ΔCt data are plotted on the y-axes. An increase of 1 on the y-axis thus corresponds to a 2-fold increase in target gene expression. ΔCt data are the observed values from experimental procedures and it is recommended that ΔCt data rather 2−ΔCt data be the subject of statistical analysis (41). […]

[2] = tested on: C-terminal phospho-Smad5; assay: C-terminal phospho-Smad5 immunoblot of liver extracts, gonadectomized Bmp6-/- females treated with testosterone; settings: administration of testosterone to Bmp6-/- females
Description: as §1, with “Mice were housed under controlled lighting and temperature conditions, fed a chow of normal iron content (250 mg iron/kg; SAFE, Augy, France) ad libidum, and were fasted for 14 h before they were killed. Experimental protocols were approved by the Midi-Pyrenees Animal Ethics Committee.” left out
(§4) Livers were homogeneized in a FastPrep®-24 Instrument (MP Biomedicals) for 15 sec at 4 m/s. […] Liver proteins were quantified using a protein assay kit (Bio-Rad). […]

[3] = tested on: Hepcidin (Hamp) mRNA; assay: Liver hepcidin (Hamp) mRNA by qRT-PCR after testosterone administration to ovariectomized Bmp6-/- mice
[4] = tested on: C-terminal phospho-Smad2; assay: C-terminal phospho-Smad2 immunoblot of liver extracts, gonadectomized Bmp6-/- females treated with testosterone; settings: administration of testosterone to Bmp6-/- females
Description: as §1, with “Mice were housed under controlled lighting and temperature conditions, fed a chow of normal iron content (250 mg iron/kg; SAFE, Augy, France) ad libidum, and were fasted for 14 h before they were killed. Experimental protocols were approved by the Midi-Pyrenees Animal Ethics Committee.” left out
as §4

[5] = tested on: Egfr mRNA; assay: Liver Egfr mRNA by qRT-PCR after testosterone administration to gonadectomized Bmp6-/- females
Description: as §1, §2, §3

[6] = gefitinib 200 mg/kg orally daily for 7 days
[7] = non-irradiated 7 w.o. ovariectomized Bmp6-/- mice, testosterone propionate 10 mg/kg sc daily for 7 days
[8] = whole-body irradiated ovariectomized Bmp6-/- mice, daily testosterone days 2 to 8
[9] = gonadectomized Bmp6-/- females, testosterone for a week

Row | SMILES | Hamp mRNA -ΔΔCt (gefitinib vs vehicule) [1, 6] | Hamp mRNA mean -ΔCt (Ct Hprt - Ct Hamp) [1, 6] | Hamp expression on average higher than in mice treated with vehicule ([1]; gefitinib 200 mg/kg orally daily for 7 days, liver mRNA) | Effect on Hamp mRNA levels (in words) ([1]; gefitinib daily for 7 days) | C-terminal Smad phosphorylation (Smad5) in liver (in words) [2] | Effect on hepcidin expression in irradiated mice (in words) ([3]; irradiated ovariectomized Bmp6-/- females, testosterone propionate 10 mg/kg days 2 to 8) | Hamp mRNA -ΔΔCt (testosterone vs vehicule) [3, 7] | Hamp mRNA mean -ΔCt (Ct Hprt - Ct Hamp) [3, 7] | Hepcidin expression repressed on average (vs vehicule) ([3]; non-irradiated 7 w.o. ovariectomized Bmp6-/- mice, testosterone propionate 10 mg/kg sc daily for 7 days, liver mRNA) | Hepcidin expression reduced on average (vs vehicule) ([3]; whole-body irradiated (60Co, 6 Gy) ovariectomized Bmp6-/- mice, daily testosterone days 2 to 8) | Hamp mRNA -ΔΔCt (testosterone vs vehicule) [3, 8] | Hamp mRNA mean -ΔCt (Ct Hprt - Ct Hamp) [3, 8] | C-terminal Smad2 phosphorylation in liver (in words) [4] | Egfr mRNA -ΔΔCt (testosterone vs vehicule) [5, 9] | Egfr mRNA mean -ΔCt (Ct Hprt - Ct Egfr) [5, 9] | Egfr expression increased on average (vs vehicule) ([5]; gonadectomized Bmp6-/- females, testosterone for a week, liver mRNA) | Effect on liver Egfr expression (in words) ([5]; ovariectomized Bmp6-/- females treated with testosterone for a week)
1 | COc1cc2ncnc(Nc3ccc(F)c(Cl)c3)c2cc1OCCCN1CCOCC1 [gefitinib, 4-quinazolinamine, N-(3-chloro-4-fluorophenyl)-7-methoxy-6-[3-(4-morpholinyl)propoxy]-(9CI)] | 2.76 | 4.02 | 6.8 fold | significant induction of Hamp mRNA levels |  |  |  |  |  |  |  |  |  |  |  |  | 
2 | CCC(=O)O[C@H]1CC[C@H]2[C@@H]3CCC4=CC(=O)CC[C@]4(C)[C@H]3CC[C@]12C [testosterone, testosterone propionate] |  |  |  |  | reduced | downregulation of hepcidin expression to levels similar to those observed in non irradiated control mice | −3.95 | 1.27 | 15.4 fold | 16.3 fold | −4.03 | 0.81 | increased | 1.72 | 0.88 | 3.3 fold | induced
